Assay results from patent US11753407B2, “Compounds for treating spinal muscular atrophy” (PTC Therapeutics, Inc., priority 2012, dated 2023).

How the values were obtained:
[1] = system: Smn protein in human motor neurons derived from SMA iPS cells; test: Smn protein assay in human motor neurons; assay type: cell-based; conditions: 72 hours, increasing concentrations (FIG. 10)
Description: Smn immunofluorescent confocal microscopy is used to quantify the level of Smn protein in human motor neurons treated with test compounds.
Protocol. Human motor neurons derived from SMA iPS cells (Ebert et al., Nature, 2009, […]; and, Rubin et al., BMC Biology, 2011, 9:42) are treated with test compound at various concentrations for 72 hours. The level of Smn protein in the cell nucleus is quantified using Smn immunostaining and confocal fluorescence microscopy essentially as described in Makhortova et al., Nature Chemical Biology, 2011, 7:544. The level of Smn protein in compound-treated samples is normalized to that in vehicle-treated samples and plotted as a function of the compound concentration.

[2] = system: Smn protein in SMA patient fibroblast cells (GM03813); test: Smn protein assay in cultured cells (SMN HTRF); assay type: cell-based, human; conditions: 48 hours; for Smn protein expression: SMA Type 1 patient fibroblast cells, SMN HTRF assay (FIG. 8); for EC1.5x for Smn protein expression / maximum fold (Fold) increase of Smn protein: SMA patient fibroblast cells; for EC1.5x for Smn protein expression: 7-point concentration curve, SMN HTRF, concentration producing 1.5 times Smn protein vs DMSO vehicle control; for maximum fold (Fold) increase of Smn protein: 7-point concentration data, fold relative to vehicle control
In short: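 Cells were cultured 72 h, seeded at 5,000/well and dosed with seven concentrations (3.16-fold apart) for 48 h. HTRF on lysates, read at 665 and 620 nm, gave blank-corrected ΔF values relative to DMSO. Potency is reported as EC1.5×, efficacy as maximal fold Smn increase.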

Structure (SMILES)	Smn protein in the nucleus [1]	Smn protein expression [2]	EC1.5x for Smn protein expression [2]	maximum fold (Fold) increase of Smn protein [2]
COc1ccc(-c2cc(=O)n3cc(N4CCNCC4)ccc3n2)cc1OC [Cpd 6, 2-(3,4-dimethoxyphenyl)-7-(piperazin-1-yl)-4H-pyrido[1,2-a]pyrimidin-4-one]	progressively more Smn protein in the nucleus	dose dependent increase in Smn protein expression	*** (an EC1.5× between >0.3 μM and ≤1 μM is indicated by three stars (***))	**** (a fold increase between >1.5 and ≤1.65 is indicated by four stars (****))
Cc1cn2nc(-c3cc(=O)n4cc(N5CCN(C)CC5)ccc4n3)cc2c(C)n1 [Cpd 170, 2-(4,6-dimethylpyrazolo[1,5-a]pyrazin-2-yl)-7-(4-methylpiperazin-1-yl)-4H-pyrido[1,2-a]pyrimidin-4-one]		dose dependent increase in Smn protein expression	**** (an EC1.5x≤0.3 μM is indicated by four stars (****))	***** (a fold increase >1.65 is indicated by five stars (*****))
